In PubChem BioAssay AID1259418 (Broad Institute, 2018):
“And” between values parts separate entries of the source, which are not always exact repeats. Equal values may be shown once. Records with an inconclusive call do not appear. The source made the active and inactive calls.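 Rule for the calls: active = fitted half-maximal concentration of signal decrease at or below twice the sample's top tested concentration; inconclusive = flat curve between -70 and -30 percent, or poor fit; inactive = flat within 30 percent, signal rise, or potency above limit.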

Molecular target: T. gondii ME49Luc in IFN-y HeLa, luciferase, 72 h
Experiment: T. gondii growth inhibition with IFN-gamma, dose response, cell-based, ME49Luc, HeLa, luciferase, 72 h (AID 1259418)

Row | Compound | AC50
1 | O=C(NCc1cccnc1)C1CCN(Cc2cc3ccccc3n2Cc2ccc(F)cc2)CC1 | 38.3 µM
2 | O=C1CCc2cc(S(=O)(=O)NCc3ccco3)cc3c2N1CCC3 | > 39 µM (inactive)
3 | Cc1cccc(OCC(=O)N2CCC3(CC2)Nc2ccc(Cl)cc2-n2cccc23)c1 | 8.26 µM and 14.9 µM
4 | COc1cccc(-c2ccc3c(c2)[C@@H]2[C@@H](CCN2S(=O)(=O)c2ccccc2F)[C@@H](CO)N3)c1 | 25.4 µM
5 | O=C(CC1CCC2(CC1)CCN(c1ncc(F)cn1)CC2)N1CC=CC1 | 19.3 µM
6 | O=S(=O)(c1ccc2c(c1)CCCC2)N1CCC2(CC1)NCCN=C2NCc1cccc(F)c1 | 5.26 µM
7 | O=C(NCc1cncc2c1CCN(Cc1cccc(F)c1)C2)C1CC1 | 8.45 µM
8 | CCCNC(=O)N1C[C@@H]2N[C@H](C1)C2c1ccc(-c2cccc(F)c2)cc1 (some centres not stated) | 18.2 µM
9 | Cc1ccc(-c2nc(CN3CCN(C(=O)Nc4ccc(C)c(F)c4)CC3)c(C)o2)cc1 | 8.58 µM
10 | COc1ccc(CNC2=NCCNC23CCN(S(=O)(=O)c2cc(C)c(C)cc2C)CC3)cc1 | 12.6 µM
11 | CCCCNC(=O)CC1N=C2c3ccccc3N=C(SCc3ccc(C)cc3)N2C1=O (configuration not stated) | 10.4 µM
12 | CC(C)CNC(=O)c1nc2c(s1)CCN(C(=O)NCc1ccccc1)CC2 | 16.1 µM
13 | Cc1cc(C(=O)N2CCC(c3cc4c(ncn4C)c(NCC4CC4)n3)CC2)ccc1Cl | 23.1 µM
14 | COCC1CN(C(=O)c2ccccc2F)Cc2cnn(CC3CC3)c21 (configuration not stated) | 35.8 µM
15 | COc1cccc(CNC2=NCCNC23CCN(S(=O)(=O)c2ccc4c(c2)CCCC4)CC3)c1 | 16.3 µM
16 | Cc1cc2nc(CN3CCCC(CCc4ccc(F)cc4F)C3)cc(=O)n2[nH]1 (configuration not stated) | > 20 µM (inactive)
17 | O=C(Cc1ccccn1)N1CC(=O)N2[C@H](CO)[C@@H](c3ccc(C#CCC4CCCC4)cc3)[C@@H]2C1 | 9.77 µM and 15.5 µM
18 | O=C(Cc1ccccc1)N1CC(=O)N2[C@H](CO)[C@@H](c3ccc(-c4ccc(F)cc4)cc3)[C@H]2C1 | 22.2 µM
19 | COc1ccc(CN2C[C@@H]3C[C@H](C(=O)Nc4ccccc4)[C@@H](C2)O3)cc1 | > 39 µM (inactive)
20 | Cn1cc(-c2cnc(Nc3ccccc3)nc2)cc1C(=O)Nc1cccc(O)c1 | 23.6 µM
21 | O=S1(=O)c2ccccc2O[C@H]2CCN(Cc3ccc(Cl)cc3)CC[C@H]2N1CC1CC1 | 32 µM
22 | O=C(CC1N=C2c3ccccc3N=C(SCc3ccccc3F)N2C1=O)NCCc1ccccc1 (configuration not stated) | > 39 µM (inactive)
23 | C/C=C/c1ccc([C@@H]2[C@@H](CO)N3CCCCN(CCC(F)(F)F)C[C@@H]23)cc1 | 17.4 µM

Row | Compound | AC50
24 | CCOc1ccc(-c2nc(CN3CCN(C(=O)Nc4ccccc4)CC3)c(C)o2)cc1 | 16.9 µM
25 | Cc1ccc(S(=O)(=O)N2CCC3(CC2)NCCN=C3NCc2ccc(F)c(Cl)c2)c(C)c1 | 6.21 µM
26 | Cc1cccc(N2CCN(C(=O)CC3Nc4c5ccccc5nc(=S)n4C3=O)CC2)c1C (configuration not stated) | 26.9 µM
27 | O=C(Nc1ccc(F)cc1)N1C[C@@H]2N[C@H](C1)C2c1ccc(/C=C/c2ccccc2)cc1 (some centres not stated) | 10.3 µM and 2.14 µM
28 | Cc1nc(OCC(=O)Nc2ccc(Cl)c(Cl)c2)c2ccccc2n1 | > 39 µM (inactive)
29 | O=S(=O)(c1ccc2c(c1)CCCC2)N1CCC2(CC1)NCCN=C2NCc1ccccc1F | 16.4 µM
30 | COc1cccc(C(=O)Nc2ccc3c(c2)C(=O)N(C)[C@H]2CC[C@@H](CC(=O)N[C@@H](C)c4ccccc4)O[C@H]2CO3)c1 | > 39 µM (inactive)
31 | CC(C)COC1CC2(CCN(C(=O)c3cccn3C)CC2)C1 | 14.6 µM
32 | CS(=O)(=O)N1CC(=O)N2[C@H](CO)[C@@H](c3ccc(C#Cc4ccc(F)cc4)cc3)[C@H]2C1 | 39 µM
33 | Cc1ccc(C)c(NC(=O)N2CCN(Cc3nc(-c4cccc(Cl)c4)oc3C)CC2)c1 | > 39 µM (inactive)
34 | Fc1cccc(CN2C[C@@H]3N[C@H](C2)C3c2ccc(/C=C/c3ccccc3)cc2)c1 (some centres not stated) | 12.1 µM and 17.5 µM
35 | O=C(CCC1N=C2c3ccccc3N=C(SCc3cc(=O)n4cc(Cl)ccc4n3)N2C1=O)NCc1cccs1 (configuration not stated) | 32 µM
36 | COc1ccc(C#Cc2ccc([C@H]3[C@@H](CO)N4C(=O)CN(C(=O)NC(C)C)C[C@@H]34)cc2)cc1 | 22.3 µM
37 | O=C1NCC(=O)N2CCN(C(=O)Nc3cc(Cl)cc(Cl)c3)CC12 (configuration not stated) | 20.3 µM
38 | O=C(C[C@H]1CC[C@H]2[C@@H](COC[C@H](O)CN2Cc2ccc(Oc3ccccc3)cc2)O1)N1CCN(c2ccccc2)CC1 | 12.1 µM and 21.2 µM
39 | O=C(CC1N=C2c3ccccc3N=C(SCc3ccc(F)cc3)N2C1=O)NCc1cccs1 (configuration not stated) | 35 µM
40 | Cc1ccccc1-c1ccc(C2[C@@H]3CN(C(=O)c4ccc(F)cc4)C[C@H]2N3)cc1 (some centres not stated) | 19 µM
41 | COc1ccccc1C#Cc1ccc([C@H]2[C@H](CO)N3CCCCN(C(=O)C4CCC4)C[C@@H]23)cc1 | 13.5 µM and 5.77 µM
42 | COc1cccc(S(=O)(=O)N2CCCCN3[C@H](CO)[C@H](c4ccc(C#CC5CC5)cc4)[C@H]3C2)c1 | 10.8 µM and 2.78 µM
43 | CCN1CCN(CCCNc2nc(-c3ccc(Cl)cc3)nc3ccccc23)CC1 | > 20 µM (inactive)
44 | O=C(c1cccn2c(-c3ccc(F)cc3)nnc12)N1CCC(O)(c2ccc(Cl)cc2)CC1 | 25.4 µM
45 | Cc1ccc(-c2csc(-c3cccn3CC(=O)NCCCN3CCCC(C)C3)n2)cc1 (configuration not stated) | 17.2 µM
46 | O=C(CC1CC1)N1CC[C@@H]2[C@H]1c1cc(-c3ccc(F)cc3)ccc1N[C@@H]2CO | 19.7 µM

Row | Compound | AC50
47 | Cc1ccc(N2CC(NC(=O)C(=O)c3c[nH]c4ccccc34)CC2=O)cc1 (configuration not stated) | > 39 µM (inactive)
48 | O=C(c1ccc2c(c1)OCO2)N1C[C@@H]2N[C@H](C1)C2c1ccc(/C=C/c2ccccc2)cc1 (some centres not stated) | 8.94 µM and 21.9 µM
49 | O=C(CC1Nc2c3ccccc3nc(=S)n2C1=O)N1CCN(c2ccccc2F)CC1 (configuration not stated) | 29.7 µM
50 | COc1cccc(S(=O)(=O)N2CCCCN3[C@H](CO)[C@H](c4ccc(C#CCC(C)C)cc4)[C@H]3C2)c1 | 16.5 µM and 1.89 µM and 10.4 µM
51 | O=C(Cc1ccncc1)N1CCCCN2[C@H](CO)[C@@H](c3ccc(C#Cc4ccccc4F)cc3)[C@H]2C1 | 18.5 µM
52 | CCc1ccc(S(=O)(=O)N2CCC3(CC2)NCCN=C3NC2CCCCCC2)cc1 | 5.05 µM
53 | OC(c1cc(C(F)(F)F)nc2c(C(F)(F)F)cccc12)C1CCCCN1 (configuration not stated) | 6.5 µM
54 | COc1ccc(Cl)cc1NC(=O)COc1nc(C)nc2ccccc12 | 24.1 µM
55 | COc1ccc(-c2nc(CN(c3ccccc3)S(=O)(=O)c3ccccc3)c(C)o2)cc1OC | 3.77 µM
56 | Cc1ccsc1C(=O)N1CCc2nc(N3CCOCC3)nc(NC(C)C)c2C1 | > 39 µM (inactive)
57 | O=C(Cc1cccnc1)N1CC(=O)N2[C@H](CO)[C@H](c3ccc(C#CC4CCCCC4)cc3)[C@H]2C1 | 19.4 µM
58 | CCOc1ccc(-c2nc(CN(c3ccc(OC)cc3)S(=O)(=O)c3cccs3)c(C)o2)cc1 | 8.01 µM and 17.4 µM
59 | CCOc1ccc(-c2nc(CN3CCN(C(=O)NC4CCCC4)CC3)c(C)o2)cc1 | 29.5 µM
60 | COc1ccc(-c2nc(NCCCN3CCC(N4CCCCC4)CC3)c3ccccc3n2)cc1 | 31.3 µM
61 | O=C(c1cccc2[nH]ccc12)N1CCCC1c1nc(-c2cccc(Cl)c2)no1 (configuration not stated) | 23.3 µM
62 | O=C(Nc1ccccc1)c1ncn2c1CN(CC1CC1)S(=O)(=O)c1ccccc1-2 | 32.6 µM
63 | COc1ccc(-n2c(C)c([N+](=O)[O-])c3ccc(O)cc32)cc1 | 1.41 µM
64 | O=C(c1cccc(F)c1)N1CCCCN2[C@H](C1)[C@H](c1ccc(C#CC3(O)CCCC3)cc1)[C@@H]2CO | 9.01 µM
65 | CNC(=O)NCC1CCC2(CCN(Cc3ccccc3)CC2)CO1 (configuration not stated) | 26.3 µM
66 | Cc1cc(C(F)(F)F)nn1CC(=O)N1CCCC1c1cc(C(C)C)on1 (configuration not stated) | 32.6 µM
67 | Cc1ccc(-c2coc(-c3ccc(NS(=O)(=O)c4ccc(Br)cc4C)cc3)n2)c(C)c1 | 26.7 µM
68 | O=S(=O)(c1ccc2c(c1)CCCC2)N1CCC2(CC1)NCCN=C2NCc1cc(F)cc(F)c1 | 4.41 µM
69 | COc1cccc(S(=O)(=O)N2CCCCN3[C@H](CO)[C@@H](c4ccc(C#CCC(C)C)cc4)[C@@H]3C2)c1 | 5.58 µM and 10.4 µM and 10.5 µM

Row | Compound | AC50
70 | COc1ccc(NC(=O)CN2CCC3(CC2)N=C(c2cccc(C)c2)C(=O)N3)c(OC)c1 | 29.4 µM
71 | COc1cccc(-c2nc(C)c(-c3ccc(SCc4ccccc4)nn3)s2)c1 | 12.7 µM
72 | CCc1cnc(N2[C@@H](C#N)[C@@H](c3ccc(C4=CCCCC4)cc3)[C@@H]2CO)s1 | > 20 µM (inactive) and 8.88 µM
73 | Cc1ccc(S(=O)(=O)N2CCC3(CC2)NCCN=C3NCc2ccc(C(F)(F)F)cc2)c(C)c1 | 9.08 µM
74 | O=C(Nc1cccc(F)c1)N1CCCCN2[C@H](CO)[C@H](c3ccc(C#Cc4cccnc4)cc3)[C@@H]2C1 | 2.07 µM and 1.05 µM
75 | COc1ccc(S(=O)(=O)N(Cc2nc(-c3ccccc3OC)oc2C)c2ccccc2OC)cc1 | 13.7 µM
76 | OC[C@@H]1[C@@H](c2ccc(-c3cccc(F)c3)cc2)[C@@H]2CN(Cc3cncnc3)CCCCN12 | 36.1 µM
77 | COc1cccc(NC(=O)N2CC(=O)N3[C@H](C2)[C@@H](c2ccc(C#CCC4CCCC4)cc2)[C@@H]3CO)c1 | 17 µM and 3.35 µM
78 | CCN1CCCC1CNC(=O)C1CCN(Cc2cc3ccccc3n2Cc2ccc(F)cc2)CC1 (configuration not stated) | 21.2 µM
79 | CC(C)Cc1ccc(S(=O)(=O)N2CCC3(CC2)NCCN=C3NC2CCCC2)cc1 | 12.5 µM
80 | CCc1ccc(S(=O)(=O)N2CCC3(CCCN(Cc4c(C)noc4C)C3)C2)cc1 (configuration not stated) | 22.9 µM
81 | Cc1ccc(CSC2=Nc3ccccc3C3=NC(CC(=O)NCc4ccc5c(c4)OCO5)C(=O)N23)cc1 (configuration not stated) | > 39 µM (inactive)
82 | COc1cc(Nc2nc(SCc3ccccc3F)nc3ccccc23)cc(OC)c1OC | 20.6 µM
83 | COc1ccccc1CNC1=NCCNC12CCN(S(=O)(=O)c1ccc(Cl)s1)CC2 | 17 µM
84 | COc1cccc(-c2nc(C)c(-c3ccc(SCc4ccc(F)cc4)nn3)s2)c1 | 6.5 µM
85 | CCOc1ccc(-c2nc(CN(c3cccc(OC)c3)S(=O)(=O)c3ccccc3C)c(C)o2)cc1 | 34.5 µM
86 | COCCCN(Cc1ccco1)c1nc(-c2ccc(OC)cc2)nc2ccccc12 | 16.9 µM
87 | O=S(=O)(c1ccc2c(c1)CCCC2)N1CCC2(CC1)NCCN=C2NCc1ccccc1 | 12.9 µM
88 | O=C(NC1CCCC1)N1CCCCN2[C@H](CO)[C@@H](c3ccc(-c4cccnc4)cc3)[C@H]2C1 | > 39 µM (inactive)
89 | Cc1cc(C2CCCN2Cc2cn(C(C)C)c3ccccc23)no1 (configuration not stated) | 35.1 µM
90 | N#C[C@H]1[C@H](c2ccc(C#Cc3ccccc3F)cc2)[C@@H](CO)N1C(=O)c1cccnc1 | > 39 µM (inactive)
91 | COc1ccccc1-c1nc(Cn2nnc(-c3nc(-c4cccc(C(F)(F)F)c4)no3)c2C)c(C)o1 | > 20 µM (inactive)
92 | CC(C)c1ccc(S(=O)(=O)N2CCC3(CC2)NCCN=C3NCc2ccc3c(c2)OCO3)cc1 | 33.6 µM
